Results reported in patent US20220339135A1, “COMPOSITIONS AND METHODS FOR MODULATING AN INFLAMMATORY RESPONSE” (Enzychem Lifesciences Corporation, priority 2019, published 2022).

How the values were obtained:
[1] = test system: lysosomal activity in THP-1 cells; test: MSU-induced lysosomal activity; type: cell-based, human; conditions: MSU/PLAG treated cells
Method: THP-1 cells were divided into two groups: 1) MSU treated group and 2) MSU/PLAG treated group. For MSU treated group, THP-1 cells were stimulated with monosodium urate (MSU) crystal (400 μg/ml) for 0, 10, 20, 30, 40, 50, 60 minutes. For MSU/PLAG treated group, THP-1 cells were pre-incubated with PLAG (100 μg/ml) for an hour and then stimulated with monosodium urate (MSU) crystal (400 μg/ml) for 0, 10, 20, 30, 40, 50, 60 minutes. Then, cells were harvested. (A) To detect for the P2Y6 receptor on the membrane surface, cells were fixed with 4% paraformaldehyde (Sigma-Aldrich) and incubated with PBS containing 1% BSA for blocking. They were labeled with the rabbit anti-P2Y6 receptor antibody (1:200, APR-011, Alomone Labs, Jerusalem, Israel) for 1 h. The detection Ab was used with Alexa Flour 488 goat anti-rabbit IgG (Invitrogen). (B) To detect lysosomal activity, THP-1 cells were stained with Texas red conjugated-LYSO-ID® Lysosomal Detection Kit (Enzo Life Sciences, Inc.). Finally, cells were washed with 1% FBS/PBS and mounted with DAPI-containing fluorescence microscopy mounting medium (Invitrogen). Confocal samples were analyzed with a laser scanning confocal microscope (Carl Zeiss, Oberkochen, Germany). For flow cytometric analysis, cells were washed and analyzed with a FACSVerse flow cytometer (BD Biosciences). FlowJo software (Tree Star, OR, USA) was used data processing.

[2] = test system: intracellular calcium in dHL-60 cells; test: Fluo-4 calcium assay; type: cell-based, human
Method: Human leukemia line (HL-60) cells were differentiated (dHL-60) to neutrophil-like cells in the culture medium with the addition of 1.3% DMSO (Sigma) for 5 days in a humidified atmosphere at 37° C. without changing the medium. dHL-60 cells (2×10^5 cells/mL) were loaded with 5 μM fluo-4 AM for 45 minutes and washed three times with warmed modified (37° C.) HBSS buffer (137.93 mM NaCl, 5.33 mM KCl, 2 mM CaCl2), 1 mM MgSO4, 2.38 mM HEPES, 5.5 mM glucose, pH to 7.4). The cells were seeded on black-walled 96-well plates and then treated with vehicle (0.1% DMSO), ionomycin (5 μM; positive control) or PLAG (100 μg/mL) just before measurement. Baseline fluorescence was measured before treatment, and fluorescence was read every 20 s for 700 s using an excitation wavelength of 494 nm, an emission wavelength of 516 nm in a FlexStation 3 microplate reader (Molecular Devices). Fluorescence values were reported as F/Fo according to the calculation: [ΔF=(494 nm)f/(516 nm)f−(494 nm)0/(516 nm)0]. For studies in 0 mM external calcium, the cells were loaded as mentioned earlier. After being loaded, the cells were washed four times with calcium-free HBSS. The remainder of the study was carried out in calcium-free HBSS.
(§1) HL-60 cells were differentiated (dHL-60) to neutrophil-like cells in the culture medium with the addition of 1.3% DMSO (Sigma) for 5 days in a humidified atmosphere at 37° C. without changing the medium. dHL-60 cells (2×10^5 cells/mL) were loaded with 5 μM fluo-4 AM for 45 minutes and washed three times with warmed modified (37° C.) HBSS buffer (137.93 mM NaCl, 5.33 mM KCl, 2 mM CaCl2, 1 mM MgSO4, 2.38 mM HEPES, 5.5 mM glucose, pH to 7.4). […] Baseline fluorescence was measured before treatment, and fluorescence was read every 20 seconds for 700 seconds using an excitation wavelength of 494 nm, an emission wavelength of 516 nm in a FlexStation 3 microplate reader (Molecular Devices). Fluorescence values were reported as F/Fo according to the calculation: [ΔF=(494 nm)f/(516 nm)f−(494 nm)0/(516 nm)0]. […]
as §1, with “s” for “seconds”, “Devices).” for “Devices). Fluorescence values were reported as F/Fo according to the calculation: [ΔF=(494 nm)f/(516 nm)f−(494 nm)0/(516 nm)0].”

## CCCCC/C=C\C/C=C\CCCCCCCC(=O)OC(COC(C)=O)COC(=O)CCCCCCCCCCCCCCC (racemic) [PLAG, 1-palmitoyl-2-linoleoyl-3-acetylglycerol]
[1]
  lysosomal activity detected: about 10 minutes
  lysosomal activity returned: about 30 minutes
[2]; PLAG 100 μg/mL, ionomycin 5 μM
  cytosolic calcium of dHL-60 cells: increased
[2]; vs imiquimod alone, extracellular calcium-free and containing condition
  intracellular calcium levels, co-treatment with imiquimod: significantly increased
